Data published in US12098352B2, “Stem cell-based lung-on-chip models” (EMULATE, INC., priority 2018, dated 2024).
“Also recorded” adds a separate entry of the source.

Key:
[1] = system: epithelium-endothelium co-culture perfused with human whole blood; settings: LPS treatment of the alveolar lumen of epithelium-endothelium co-culture; cited from earlier work
[2] = system: platelets; test: Blood perfusion of LPS pretreated Alveolar-chip vascular channel; type: cell-based, human; settings: LPS pretreated (inflamed) chip
Procedure: For further validation on the functionality of the endothelial compartment, the vascular compartment comprising an endothelial cell lining, was exposed to blood under flow. In one embodiment, an LPS pretreated microfluidic Alveolar-chip was perfused with blood, i.e. blood was flowed through the spiral channel. In one embodiment, a sample of human blood, e.g. 5 ml of whole blood isolated the same day from a healthy person (e.g. in citrate or heparin anticoagulation compounds) was perfused through the bottom spiraled channel with Ca2+ and Mg2+ to counteract the anticoagulation compounds, at 30 ml/hour. […] Left, schematic diagrams of the upper channels blue and ports blue dots, and spiral lower vascular endothelial channel red and ports red dots. […] Larger pink areas represent aggregation of platelets and adhered platelets are observed at the lower sharp bend.

[3] = system: ICAM1; test: ICAM1 immunostaining of endothelial cells (HMECs) lining the vascular surface of the Chip; type: cell-based, human
Procedure: FIG. 22A Effect of LPS on Vascular Expression of ICAM1. […] Representative images (20×) of endothelial cells (HMECs) lining the vascular surface of the Chip fixed and stained for ICAM1 (red) at 24 h post LPS treatment of the alveolar epithelial compartment. Nuclei are colored blue. […] IL-6, il-8 and MCP-1 have 40-90 fold increases in relation to untreated controls. FIG. 22C Detection of exemplary Lung-Specific Cytokines and Chemokines, IL-6; IL-8; MCP-1 and RANTES, in response to LPS stimulation. Co-cultures of Epithelium/Fibroblasts/Vasculature induced higher levels of cytokines than co-cultures of Epithelium/Vasculature; Fibroblasts/Vasculature or Vasculature alone.
Interconnectivity refers to the observation that adding a compound to the epithelial side may induce a cytokine mediated response in the endothelial side. […] In other words, inflamed epithelial cells modulate function of the endothelial cells.
Open-Top Organ-Chips were fixed in 10% neutral buffered formalin. Endothelial cells were stained inside the chip by performinutesg the immunofluorescence steps described below directly inside the microfluidic channel. Stroma equivalents were stained as described by the step below inside the chip or alternatively extracted from the chip and processed for immunohistochemistry analysis. […]

[4] = system: cellular monolayer barrier; test: Barrier function in static transwell; type: cell-based; settings: doses up to 100 ng/ml LPS, 10 mM H2O2

Lipopolysaccharide [LPS]
thrombotic events [1]: triggered thrombotic events
platelet response on blood perfusion [2]: platelet adhesion and aggregation
ICAM expression, endothelial cells exposed directly ([3]; LPS directly on endothelial cells, no epithelium): does not induce expression of ICAM
vascular expression of ICAM1 ([3]; LPS on the alveolar epithelial compartment, 24 h): induced vascular expression of ICAM1; also recorded: induces expression of ICAM on endothelial cells; also recorded: induces ICAM1 expression only in presence of epithelial cells
loss of barrier function [4]: dose dependent loss of barrier function
